Measurements: BindingDB's records for patent US11787796 (Takeda Pharmaceutical, 2023)

Target: Plasma kallikrein (Homo sapiens, UniProt P03952)
Test: Inhibitory Activity of Exemplary Compounds Against Plasma Kallikrein
Description: Example compounds were evaluated for inhibition of the human activated kallikrein enzyme in two formats of an assay employing a fluorogenic peptide substrate. In one assay format, the concentrations of reagents were as follows: 20 mM Tris pH 7.5, 1 mM EDTA, 150 mM sodium chloride, 0.1% PEG-400, 0.1% Triton X-100, […], 300 uM Pro-Phe-Arg-7-amido-4-methylcoumarin substrate. Prior to reaction initiation with substrate, enzyme and inhibitors were preincubated for 30 min at RT. After initiation with substrate, reactions were incubated for 10 min at RT and fluorescence emission at 460 nm from 380 nm excitation measured with a microplate reader. In another assay format, the concentrations of reagents were as follows: 20 mM Tris pH 7.5, 1 mM EDTA, 150 mM sodium chloride, 0.1% PEG-400, 0.1% Triton X-100, 5 pM activated kallikrein enzyme, 300 uM Pro-Phe-Arg-7-amido-4-methylcoumarin substrate. Prior to reaction initiation with substrate, enzyme and inhibitors were preincubated for 30 min at RT. After initiation with substrate, reactions were incubated for 18 h at RT and fluorescence emission at 460 nm from 380 nm excitation measured with a microplate reader.

Sequence of Plasma kallikrein (P03952 20-390 limits assumed): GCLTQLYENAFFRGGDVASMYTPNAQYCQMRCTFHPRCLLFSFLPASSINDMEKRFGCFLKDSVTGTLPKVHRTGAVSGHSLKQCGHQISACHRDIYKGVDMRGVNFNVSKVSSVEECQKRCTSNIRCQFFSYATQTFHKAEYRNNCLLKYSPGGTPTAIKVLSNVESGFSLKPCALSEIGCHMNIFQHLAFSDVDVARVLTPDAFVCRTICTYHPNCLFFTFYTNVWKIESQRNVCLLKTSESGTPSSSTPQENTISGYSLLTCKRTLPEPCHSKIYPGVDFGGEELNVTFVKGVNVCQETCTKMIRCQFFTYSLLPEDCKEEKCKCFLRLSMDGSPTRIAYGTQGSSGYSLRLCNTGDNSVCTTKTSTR
Sequence of Plasma kallikrein (P03952 391-638 limits assumed): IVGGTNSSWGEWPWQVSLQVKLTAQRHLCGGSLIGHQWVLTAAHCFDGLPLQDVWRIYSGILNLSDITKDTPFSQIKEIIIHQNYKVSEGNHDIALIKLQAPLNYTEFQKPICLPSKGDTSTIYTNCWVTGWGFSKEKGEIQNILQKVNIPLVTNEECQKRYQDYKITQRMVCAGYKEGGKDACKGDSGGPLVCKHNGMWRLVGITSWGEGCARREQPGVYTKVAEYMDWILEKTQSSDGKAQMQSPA

EC50: < 1 nM
SMILES: COc1ccc(-n2cnnn2)c(CNC(=O)c2nnn(Cc3cn4cc(C5CC5)ccc4n3)n2)c1F [US11787796, Compound I-28]
